Test results: US20240075050A1, “Methods and Compositions for Treating Leucine Rich Repeat Kinase 2 (LRRK2)-Associated Disorder or Condition” (University of Connecticut, priority 2022, published 2024)

Assays:
[1] = system: mouse primary cortical neurons; test: Primary neuronal viability assay, LRRK2-induced neuronal toxicity; format: cell-based; settings: 1 mM AICAr
Description: Primary neuronal cultures and viability assay. Primary cortical neuronal cultures were prepared from embryonic day 15-16 CD1 fetal mice (Charles River)^1. Briefly, cortices were dissected and dissociated by Trypsin (Invitrogen). The cells were seeded into 24-well plates pre-coated with poly-L-ornithine (Sigma) and were maintained in Neurobasal medium (Gibco) supplemented with B27 supplement (Gibco) and L-glutamine. The glial cells were inhibited by adding 5-fluoro-20-deoxyuridine (5F2DU, 30 μM, Sigma) at days in vitro (DIV) 4. To assess ATIC in LRRK2-induced toxicity, neurons were first infected with lentiviruses of ATIC-shRNA #6 or control-shRNA at DIV 3, and MYC-LRRK2, […] were co-transfected at a plasmid ratio of 10:1 into neurons at DIV 5 using Lipofectamine 2000 reagent (Invitrogen). […] Fixed cells are washed with PBS, permeabilized and blocked for 1 hour with PBS containing 5% goat serum and 0.3% Triton X-100, then detected with rabbit anti-GFP antibody followed by AlexaFluor-488 anti-rabbit IgG antibody. […] For each independent experiment, the percent viability of GFP-positive neurons (n>100) was determined and normalized to the control neurons transfected with pEGFP-N1 plus pcDNA3.1 empty vector.

CD68 = test: LPS-induced neuroinflammation in mice, CD68 levels; format: in vivo, mouse; settings: 21 days; for LPS-induced CD68 levels in SNpc: AICAr 2.4 μg/day/animal, immunostaining
Description: FIGS. 9A-9F depict that AICAr rescues LPS-induced DA neurodegeneration and inflammation in mice, which acts through LRRK2. FIG. 9A depicts representative images of DAneuron staining. WT and LRRK-KO mice were injected with 1 ul LPS (5 ug/animal) or phosphate buffered saline (PBS) into the substantia nigra pars compacta (SNpc) and administrated with AICAr (2.4 μg/day/animal) or saline to same stereotaxic coordinates using osmotic pumps. After 21 days of injection, DA neurons were stained by anti-tyrosine hydroxylase (TH) antibody. Scale bars, […]. FIG. 9B depicts quantification of TH positive neurons in substantia nigra pars compacta (SNpc) using an unbiased stereological method with stereo investigator software from 7-8 animals per group. FIG. 9C depicts quantification of Niss1-positive neurons in SNpc using an unbiased stereological method with stereo investigator software from 7-8 animals per group. FIG. 9D depicts the CD68 levels in SNpc tissues near the needle sites analyzed by immunostaining. Scale bars, 100 μm. FIG. 9E depicts the CD68 levels in WT and LRRK-KO mice injected with 1 μl LPS (5 μg/animal) or PBS into striatum followed by administration of AICAr (2.4 μg/day/animal) or saline to same stereotaxic coordinates using osmotic pumps. After 21 days of injection, LRRK2 and CD68 expression in striatal tissues near the needle sites was analyzed by Western blot. FIG. 9F depicts quantification of images from (FIG. 9E) using ImageJ software, n=3 animals per group. Data information: Data are mean±SEM. ***p<0.001, ****p<0.0001 by one-way ANOVA followed by a Tukey's post hoc test. ns: not statistically significant.
Stereotaxic intracranial injection. […]
Immunohistochemistry. […] After antigen retrieval with 10 mM sodium citrate (pH 6.0) and 0.05% Tween-20 at 37° C. for 30 minutes, brain sections were washed in PBS for three times, permeabilized with 0.3% Triton X-100 in PBS, blocked with 10% goat serum in PBS, incubated with anti-tyrosine hydroxylase (TH) antibody overnight at 4° C., and then detected with Biotin-SP goat anti-rabbit IgG antibody at room temperature for 2 hours. […]

NC(=O)c1ncn([C@@H]2O[C@H](CO)[C@@H](O)[C@H]2O)c1N [AICAr, 5-aminoimidazole-4-carboxamide riboside]
LRRK2 GS mutant induced neuronal toxicity ([1]; mouse primary neurons transfected with MYC-LRRK2 G2019S and eGFP): significantly rescued | overexpression of LRRK2-WT induced neuronal toxicity ([1]; mouse primary neurons transfected with MYC-LRRK2 WT and eGFP): significantly rescued | LPS-induced CD68 levels in SNpc (CD68; LRRK2 KO mice): did not significantly rescue | CD68 levels stimulated by LPS in striatum (CD68; WT mice, AICAr 2.4 μg/day/animal into striatum, Western blot): significantly reduced | LPS-induced CD68 levels in SNpc (CD68; WT mice): significantly reduced
